This note sets out measurements from article PMC4833300, “Identification of Trypanocidal Activity for Known Clinical Compounds Using a New Trypanosoma cruzi Hit-Discovery Screening Cascade” (PLoS Neglected Tropical Diseases, 2016).

The subject of experiment [1] is intracellular T. cruzi amastigotes. Put plainly: Primary high-content intracellular T. cruzi amastigote assay. In kind it is cell-based, Trypanosoma cruzi (Silvio X10/7 A1) in Vero cells. The following applies: for EC50: Trypanosoma cruzi, read-out: pEC50 (cruzi) (converted). The method, then: (§1) The compounds tested were obtained from the NIH (Clinical Collection) and from SelleckChem (FDA-approved drug library). Compounds were dispensed into black 384-well assay plates (Corning) by acoustic dispensing (LabCyte ECHO). […] Potencies are reported as pEC50 (-LOG(EC50[M])).
(§2) For the primary intracellular assay the infection conditions were chosen so that no trypomastigote egress occurs during the compound incubation time. First, Vero cells were infected overnight with tissue culture derived T. cruzi trypomastigotes in T225 tissue culture flasks (MOI 5). Next, any remaining free trypomastigotes were washed away with serum free MEM and the infected Vero cells were harvested by trypsinisation. The infected Vero cells were then plated into 384-well plates containing the compounds to be tested, at 4000 cells per well in MEM media with 1% FCS. […] The plates were imaged on a Perkin Elmer Operetta high-content imaging system using a 20x objective. Images were analysed using the Columbus system (Perkin Elmer). The algorithm for the primary assay first identified the Vero nuclei followed by demarcation of the cytoplasm and identification of intracellular amastigotes. This algorithm reported mean number of parasites per Vero cell and total number of Vero cells. Data analysis was as described in [22]. […] Hits from the primary screen were selected based on the following criteria: T. cruzi activity (percent inhibition) > (median T. cruzi percent inhibition + 3 x robust Standard Deviation) and Vero activity (percent inhibition) < (median percent Vero inhibition + 3 x robust Standard Deviation).

A further experiment has as its system Vero cells. In words: Host cell toxicity read-out of the primary assay (Vero cell count). Type of experiment: cell-based. The note with it: for EC50: Chlorocebus sabaeus, Vero, read-out: pEC50 (Vero) (converted). As to the method: as §1, §2
A further experiment deals with intracellular T. cruzi. Put plainly: Static-cidal assay (percent infected Vero cells, 96 h). Type of experiment: cell-based, Trypanosoma cruzi (Silvio X10/7 A1) in Vero cells. The following applies: Trypanosoma cruzi, Vero; 96 h; 0% = starting level of infection, 100% = 50μM Nifurtimox at 96h; only from concentrations not toxic to the host cells; read-out: MAX PI (SC), Maximum Percent Inhibition in the static cidal assay. The method, then:
The secondary static-cidal assay uses the same protocol as the standard assay with the following changes: infection is done at MOI 10, and infected Vero cells are incubated 88h at 37°C in presence of 5% CO2 prior to trypsinisation and plating. Four hours after plating a control plate (no compounds) was fixed with formaldehyde as described above. Compound containing plates were fixed after incubation for 96 hours. Compounds are run as ten point dose response curves in triplicate. The algorithm for the secondary assay was similar to the primary assay but reported percent infected Vero cells instead of the mean number of parasites.
To assess screening hits for their ability to be cytocidal rather than cytostatic or growth slowing we developed a medium throughput (400 compounds / batch) assay to predict cidality of compounds against intracellular T. cruzi. […] Instead we developed an algorithm that assesses whether a Vero cell is infected or not, and we used the percentage of infected cells as primary measurement for the static-cidal assay. In order to readily identify cidal compounds we normalised the raw data using the starting level of infection as 0% effect and the final level of infection in presence of 50μM Nifurtimox as 100% effect control.

Where [2] appears, read: hits of the bio-actives screen, 10-point dose-response, top concentration 50μM, 72h.

Where two headings read alike, the source gives them in different places.

Take `CN1CCN(CC/C=C2/c3ccccc3Sc3ccc(S(=O)(=O)N(C)C)cc32)CC1` [Thiothixene]: the EC50 was 5.01 µM in experiment [1] (setting [2]) and 7.94 µM with Vero cells (setting [2]).
For `CN(C)[C@@H](CCOc1cccc2ccccc12)c1ccccc1` [Dapoxetine], the EC50 in experiment [1] (setting [2]) was 5.01 µM; with Vero cells (setting [2]), 15.8 µM.
Consider `C#C[C@]1(O)CC[C@H]2[C@@H]3CCC4=Cc5oncc5C[C@]4(C)[C@H]3CC[C@@]21C` [Danazol], for which the EC50 is 3.98 µM in experiment [1] (setting [2]) and 15.8 µM in the experiment on Vero cells (setting [2]).
As to `CN1CCN(c2nc3cc(C(F)(F)F)ccc3n3cccc23)CC1.O=C(O)/C=C\C(=O)O.O=C(O)/C=C\C(=O)O` [CGS 12066B], the “pEC50 (cruzi)” value in experiment [1] (setting [2]) is 5.5. Also, the “pEC50 (Vero)” value with Vero cells (setting [2]) was found to be 4.8.
Turning to `CCOC(=O)C1(c2ccccc2)CCN(CCC(C#N)(c2ccccc2)c2ccccc2)CC1` [Diphenoxylate], the EC50 in experiment [1] (72 h) is 2.51 µM; with Vero cells (72 h), 15.8 µM.
The corresponding values for `Oc1cc(Cl)ccc1Oc1ccc(Cl)cc1Cl` [Triclosan] are 7.94 µM and 10 µM.
For the molecule `CCCCC(=O)O[C@H]1CC[C@H]2[C@@H]3CCc4cc(O)ccc4[C@H]3CC[C@]12C` [17β-estradiol 17-valerate], the “pEC50 (cruzi)” value in experiment [1] (setting [2]) is on record as 5.0. The “pEC50 (Vero)” value with Vero cells (setting [2]) came out at 4.9.
Turning to `COc1cc2nc(N3CCN(C(=O)C4COc5ccccc5O4)CC3)nc(N)c2cc1OC` (stereo not drawn) [Doxazosin], the EC50 in experiment [1] (setting [2]) is 5.01 µM; in the experiment on Vero cells (setting [2]), 15.8 µM.
Turning to `CNCC[C@H](Oc1cccc2ccccc12)c1cccs1` [Duloxetine], the EC50 in experiment [1] (72 h) is 6.31 µM; in the experiment on Vero cells (72 h) it was 15.8 µM.
In the case of `CCOC(=O)C1=C(C)NC(C)=C(C(=O)OC)C1c1cccc([N+](=O)[O-])c1` (stereo not drawn) [Nitrendipine], the results for the EC50 (in experiment [1] (setting [2]); in the experiment with Vero cells (setting [2])) were 3.98 µM and 15.8 µM, respectively.
Consider `COC(=O)[C@H]1[C@H]2C[C@@H]3c4[nH]c5cc(OC)ccc5c4CCN3C[C@H]2C[C@@H](OC(=O)c2cc(OC)c(OC)c(OC)c2)[C@@H]1OC` [Reserpine], for which the EC50 was 3.98 µM in experiment [1] (setting [2]) and 50.1 µM with Vero cells (setting [2]).
In the case of `CN(C)CCCN1c2ccccc2Sc2ccc(Cl)cc21` [Chlorpromazine], the EC50 in experiment [1] (setting [2]) is 3.98 µM; in the experiment on Vero cells (setting [2]) it was 10 µM.
The corresponding values for `CCOc1nc2cccc(C(=O)OC(C)OC(=O)OC3CCCCC3)c2n1Cc1ccc(-c2ccccc2-c2nnn[nH]2)cc1` (stereo not drawn) [Candesartan cilexetil] are 6.31 µM and 12.6 µM.
The corresponding values for `C=CCc1ccc(O)c(-c2ccc(O)c(CC=C)c2)c1` [Honokiol] are 2 µM and 7.94 µM.
As to `C=C1[C@H](CO)[C@@H](O)C[C@@H]1n1cnc2c(=O)[nH]c(N)nc21` [Entecavir], the results for the EC50 (in experiment [1] (setting [2]); in the experiment with Vero cells (setting [2])) were 3.98 µM and 15.8 µM, respectively.
For the molecule `COC(=O)C1=C(C)NC(C)=C(C(=O)OCCN(C)Cc2ccccc2)C1c1cccc([N+](=O)[O-])c1` (stereo not drawn) [Cardene], the EC50 is 3.98 µM in experiment [1] (setting [2]) and 15.8 µM in the experiment with Vero cells (setting [2]).
`Fc1ccc([C@@H]2CCNC[C@H]2COc2ccc3c(c2)OCO3)cc1` [Paroxetine]: the EC50 is 5.01 µM in experiment [1] (setting [2]) and 12.6 µM with Vero cells (setting [2]).
The corresponding values for `CC(COc1ccccc1Cc1ccccc1)N1CCCCC1` (stereo not drawn) [Benproperine] are 1.26 µM and 15.8 µM.
`C=C(C)CN1CC[C@]23c4c5ccc(O)c4O[C@H]2c2[nH]c4ccccc4c2C[C@@]3(O)C1C5.Cl.O` [SDM25N]: in experiment [1] (setting [2]), the “pEC50 (cruzi)” value is on record as 5.2. The “pEC50 (Vero)” value in the experiment with Vero cells (setting [2]) was 4.8.
Turning to `C[C@]12C=CC(=O)N[C@@H]1CC[C@@H]1[C@@H]2CC[C@]2(C)[C@@H](C(=O)Nc3cc(C(F)(F)F)ccc3C(F)(F)F)CC[C@@H]12` [Dutasteride], the EC50 (in experiment [1] (72 h); with Vero cells (72 h)) was 15.8 µM in each case.
Take `C[C@@H](c1ncncc1F)[C@](O)(Cn1cncn1)c1ccc(F)cc1F` [Voriconazole]: the values for the EC50 (in experiment [1] (setting [2]); in the experiment with Vero cells (setting [2])) were 0.0251 µM and 50.1 µM, respectively. Besides, in the experiment on intracellular T. cruzi, the Emax was found to be 70%.
For `CCOC(=O)C1=C(C)NC(C)=C(C(=O)OC)C1c1cccc(Cl)c1Cl` (stereo not drawn) [Felodipine], the EC50 in experiment [1] (setting [2]) was 5.01 µM; in the experiment on Vero cells (setting [2]) it was 15.8 µM.
The corresponding values for `CC(C)(C)C(=O)OCOP(=O)(COCCn1cnc2c(N)ncnc21)OCOC(=O)C(C)(C)C` [Adefovir Dipivoxil] are 6.31 µM and 15.8 µM.
The corresponding values for `O=C1[C@H]2CCCC[C@H]2C(=O)N1CCCCN1CCN(c2nsc3ccccc23)CC1` [Perospirone] are 6.31 µM and 15.8 µM.
As to `COCCOC(=O)C1=C(C)NC(C)=C(C(=O)OC/C=C/c2ccccc2)C1c1cccc([N+](=O)[O-])c1` (stereo not drawn) [Cilnidipine], the values for the EC50 (in experiment [1] (setting [2]); in the experiment with Vero cells (setting [2])) were 1.26 µM and 15.8 µM, respectively.
The corresponding values for `CCC(C)(C)c1ccc(CC(C)CN2C[C@@H](C)O[C@@H](C)C2)cc1` (stereo partly drawn) [Amorolfine] are 10 µM and 15.8 µM.
Take `Cc1cccc(CN2CCN(C(c3ccccc3)c3ccc(Cl)cc3)CC2)c1` (stereo not drawn) [Meclizine]: the EC50 was 5.01 µM in experiment [1] (setting [2]) and 20 µM in the experiment on Vero cells (setting [2]).
For the molecule `C[C@@H]1CN(CCCn2c3ccccc3c3ccccc32)C[C@H](C)N1` [Rimcazole], the values for the EC50 (in experiment [1] (setting [2]); with Vero cells (setting [2])) were 5.01 µM and 10 µM, respectively.
Consider `COc1ccc(CN2CCN(C(c3ccc(F)cc3)c3ccc(F)cc3)CC2)c(OC)c1OC` [Lomerizine], for which the EC50 is 3.98 µM in experiment [1] (setting [2]) and 15.8 µM in the experiment with Vero cells (setting [2]).
The corresponding values for `COCCOC(=O)C1=C(C)NC(C)=C(C(=O)OC(C)C)C1c1cccc([N+](=O)[O-])c1` (stereo not drawn) [Nimodipine] are 2 µM and 15.8 µM.
Take `CCOC(=O)c1cncn1[C@H](C)c1ccccc1` [Etomidate]: the EC50 in experiment [1] (72 h) is 5.01 µM; in the experiment on Vero cells (72 h) it was 50.1 µM.
As for `CO[C@H]1/C=C/O[C@@]2(C)Oc3c(C)c(O)c4c(O)c(c(/C=N/N5CCN(C6CCCC6)CC5)c(O)c4c3C2=O)NC(=O)/C(C)=C\C=C\[C@H](C)[C@H](O)[C@@H](C)[C@@H](O)[C@@H](C)[C@H](OC(C)=O)[C@@H]1C` [Rifapentine], the EC50 in experiment [1] (setting [2]) was 10 µM; in the experiment on Vero cells (setting [2]) it was 15.8 µM.
`NC(=O)N/N=C/c1ccc([N+](=O)[O-])o1` [Nitrofurazone]: the EC50 in experiment [1] (setting [2]) was 1 µM; in the experiment with Vero cells (setting [2]), 15.8 µM.
Consider `Nc1ncnc2c1ncn2[C@@H]1O[C@H](CO)C[C@H]1O` [3'-deoxydenosine], for which, in experiment [1] (setting [2]), the “pEC50 (cruzi)” value was 5.6. Besides, in the experiment on Vero cells (setting [2]), the “pEC50 (Vero)” value came out at 4.3.
Consider `COc1ccccc1OCCNCC(O)COc1cccc2[nH]c3ccccc3c12` (stereo not drawn) [Carvedilol], for which the EC50 in experiment [1] (setting [2]) was 5.01 µM; with Vero cells (setting [2]), 15.8 µM.
For `CNC1CC(c2ccc(Cl)c(Cl)c2)c2ccccc21` (stereo not drawn) [Indatraline], the EC50 in experiment [1] (72 h) was 5.01 µM; in the experiment on Vero cells (72 h), 12.6 µM.
Consider `C[C@]12Cc3c[nH]nc3C[C@@H]1CC[C@@H]1[C@@H]2CC[C@@]2(C)[C@H]1CC[C@]2(C)O` [Stanozolol], for which the EC50 is 5.01 µM in experiment [1] (72 h) and 15.8 µM with Vero cells (72 h).
On to `C[C@]12CC[C@@H]3c4ccc(O)cc4C[C@@H](CCCCCCCCC[S+]([O-])CCCC(F)(F)C(F)(F)F)[C@H]3[C@@H]1CC[C@@H]2O` (stereo partly drawn) [Fulvestrant], for which the EC50 in experiment [1] (setting [2]) was 5.01 µM; with Vero cells (setting [2]), 15.8 µM.
Take `CCCCC/C=C\C/C=C\C/C=C\C/C=C\CCCC(=O)Nc1ccc(O)cc1` [N-arachidonoylaminophenol]: in experiment [1] (setting [2]), the “pEC50 (cruzi)” value is given as 5.7. Moreover, in the experiment on Vero cells (setting [2]), the “pEC50 (Vero)” value stood at 4.8.
With `c1ccc2c(c1)Nc1ccccc1S2` [Phenothiazine], the EC50 in experiment [1] (72 h) is 2.51 µM; with Vero cells (72 h), 15.8 µM.
For the molecule `COC(=O)C1=C(C)NC(C)=C(C(=O)OC2CCCN(Cc3ccccc3)C2)C1c1cccc([N+](=O)[O-])c1` (stereo not drawn) [Benidipine], the figures for the EC50 (in experiment [1] (setting [2]); in the experiment on Vero cells (setting [2])) were 2 µM and 10 µM, respectively.
As to `CN(C)CC/C=C1/c2ccccc2Sc2ccc(Cl)cc21` [Chlorprothixene], the EC50 in experiment [1] (setting [2]) was 3.16 µM; in the experiment with Vero cells (setting [2]) it was 15.8 µM.
The corresponding values for `Cc1ccc(NC(=O)c2ccc(CN3CCN(C)CC3)cc2)cc1Nc1nc(-c2cccnc2)cs1` [Masitinib] are 2 µM and 7.94 µM.
